From BindingDB's records for doi:10.1021/jm100342z (Vernalis R&D, 2010)

Experiment: Binding affinity to Hsp70 nucleotide binding domain in human BT474 cells

IC50: 10.4 µM
SMILES: N#Cc1ccc(COC[C@H]2O[C@@H](n3c(NCc4ccc(Cl)c(Cl)c4)nc4c(N)ncnc43)[C@H](O)[C@@H]2O)cc1 [adenosine-derived inhibitor (Grp78), 13]
